From patent publication US20250026721A1, “COMPOUNDS AND METHODS FOR MODULATING RAS-PI3K” (Vividion Therapeutics, Inc., priority 2023, published 2025) come the findings set out here.

Structures are written as SMILES. pIC50: −log10 of the molar value.

The target of one experiment is T1, PIK3CA (Homo sapiens, UniProt P42336).
T1 construct: endogenous in cells; host or cells: Jurkat cell lysate
Put plainly: In vitro ELISA target engagement assay for PIK3CA in Jurkat cellular lysate (competition with PIK3CA Biotin Probe). The class given is binding. The note with it: 1 hour at rt, then 500 nM PIK3CA Biotin Probe, read-out: Elisa Target Engagement Assay (TE50). The procedure, abridged:
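Competition format in Jurkat lysate: compound (serial dilutions, top 200 μM) for 1 h at rt, then 500 nM final biotinylated PIK3CA probe for 1 h at rt. Sandwich ELISA with capture antibody and Neutravidin-HRP luminescence read-out measured probe-labelled PIK3CA, giving TE50.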

The target of the next experiment is T2, PIK3CA_C242 (Homo sapiens, UniProt P42336).
T2 construct: endogenous in cells; host or cells: Jurkat cell lysate
Put plainly: Proteomic TE50 (IA-DTB / TMT mass spectrometry) in Jurkat cell lysate. The class given is binding. Particulars: 1 hour at rt, 7-point dose response. The method, then:
Example 4. Proteomic TE50 In vitro TE50 values for PIK3CA_C242 were obtained by treating 500 μg of cell lysate generated from Jurkat cells with DMSO or compound for 1 hour at rt followed by the addition of 200 μM desthiobiotin polyethyleneoxide iodoacetamide (IA-DTB) in DMSO for one hour at rt. Compounds were serially diluted 1:5 for a total of 7 points in order to generate dose response curves. Samples were then precipitated by the addition of 8× ice cold acetone and incubated at -80° C. for two hours. Protein was then pelleted by centrifugation (4,200 RPM, 45 min, 4° C.). The pelleted material was resuspended in 9M urea, 50 mM ammonium bicarbonate and proteins were reduced and alkylated by the addition of DTT and iodoacetamide (10 and 30 mM, respectively). Following reduction and alkylation, samples were exchanged into 2M urea (Zeba spin desalting plates, Thermo Fisher) and digested with Trypsin. IA-DTB labeled peptides were isolated with streptavidin agarose resin. Enriched peptides were eluted by the addition of 50% acetonitrile (ACN) 0.1% formic acid (FA) and dried in a SpeedVac vacuum concentrator. […] Reactions were quenched by the addition of 6.5 μL of 5% hydroxylamine. Samples were then combined and desalted on a Evolute express ABN plate (Biotage, 600-0010-PX01). Targeted TMT measurements were collected using an Orbitrap Lumos Tribrid Mass Spectrometer (Thermo Scientific) coupled to an UltiMate 3000 Series Rapid Separation LC system and autosampler (Thermo Scientific Dionex). Peptides were eluted onto a custom C18 capillary analytical column (75-μm inner diameter fused silica, packed with Acclaim PepMap C18 resin; Thermo Scientific) using an Acclaim PepMap 100 (Thermo 164535) loading column, and separated at a flow rate of […]. Data were acquired using a specific MS3-based TMT method targeting the peptide containing […], +2 charge state) where MS2 peptide fragmentation is triggered upon detection of the peptide precursor ion. Subsequent MS3 analysis was then performed using pre-selected peptide fragment ions that were isolated for fragmentation using synchronous precursor selection. RAW files were converted to MZXML format and searched with the SEQUEST algorithm using the […] software package. TMT quantitation was performed with a filter requiring at least ten summed signal-to-noise (S/N) for control channels. TE50 values were calculated from 7-point dose response curves created using the reporter ion S/N for each channel.

T1 sequence (P42336 whole entry): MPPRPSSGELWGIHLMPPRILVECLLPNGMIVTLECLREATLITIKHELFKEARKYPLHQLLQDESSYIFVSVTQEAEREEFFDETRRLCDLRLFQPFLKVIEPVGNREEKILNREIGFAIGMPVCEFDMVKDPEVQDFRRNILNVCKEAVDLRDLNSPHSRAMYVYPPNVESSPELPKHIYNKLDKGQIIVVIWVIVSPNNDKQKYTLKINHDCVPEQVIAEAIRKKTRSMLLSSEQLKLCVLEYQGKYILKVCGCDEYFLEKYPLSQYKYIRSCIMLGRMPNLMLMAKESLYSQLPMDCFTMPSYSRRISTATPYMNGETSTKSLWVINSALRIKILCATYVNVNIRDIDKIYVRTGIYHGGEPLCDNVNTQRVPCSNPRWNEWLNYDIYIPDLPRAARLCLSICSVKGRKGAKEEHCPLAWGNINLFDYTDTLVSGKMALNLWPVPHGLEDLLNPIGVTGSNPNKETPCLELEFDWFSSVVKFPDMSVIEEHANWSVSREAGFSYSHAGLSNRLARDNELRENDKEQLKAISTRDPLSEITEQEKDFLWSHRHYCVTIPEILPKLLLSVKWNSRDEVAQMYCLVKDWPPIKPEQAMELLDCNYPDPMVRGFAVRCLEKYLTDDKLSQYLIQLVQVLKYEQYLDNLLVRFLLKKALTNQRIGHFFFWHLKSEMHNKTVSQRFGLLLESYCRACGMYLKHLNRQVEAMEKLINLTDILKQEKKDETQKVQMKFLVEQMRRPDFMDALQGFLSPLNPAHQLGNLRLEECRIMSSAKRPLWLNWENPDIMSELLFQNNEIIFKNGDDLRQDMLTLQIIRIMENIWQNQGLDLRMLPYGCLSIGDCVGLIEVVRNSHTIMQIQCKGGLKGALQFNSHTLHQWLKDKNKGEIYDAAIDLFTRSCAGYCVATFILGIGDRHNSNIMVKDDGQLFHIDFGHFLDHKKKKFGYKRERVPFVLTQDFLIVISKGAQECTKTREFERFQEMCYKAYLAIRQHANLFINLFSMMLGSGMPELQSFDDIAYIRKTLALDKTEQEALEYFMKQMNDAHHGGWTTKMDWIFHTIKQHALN
T1 sequence (P27986 whole entry partner): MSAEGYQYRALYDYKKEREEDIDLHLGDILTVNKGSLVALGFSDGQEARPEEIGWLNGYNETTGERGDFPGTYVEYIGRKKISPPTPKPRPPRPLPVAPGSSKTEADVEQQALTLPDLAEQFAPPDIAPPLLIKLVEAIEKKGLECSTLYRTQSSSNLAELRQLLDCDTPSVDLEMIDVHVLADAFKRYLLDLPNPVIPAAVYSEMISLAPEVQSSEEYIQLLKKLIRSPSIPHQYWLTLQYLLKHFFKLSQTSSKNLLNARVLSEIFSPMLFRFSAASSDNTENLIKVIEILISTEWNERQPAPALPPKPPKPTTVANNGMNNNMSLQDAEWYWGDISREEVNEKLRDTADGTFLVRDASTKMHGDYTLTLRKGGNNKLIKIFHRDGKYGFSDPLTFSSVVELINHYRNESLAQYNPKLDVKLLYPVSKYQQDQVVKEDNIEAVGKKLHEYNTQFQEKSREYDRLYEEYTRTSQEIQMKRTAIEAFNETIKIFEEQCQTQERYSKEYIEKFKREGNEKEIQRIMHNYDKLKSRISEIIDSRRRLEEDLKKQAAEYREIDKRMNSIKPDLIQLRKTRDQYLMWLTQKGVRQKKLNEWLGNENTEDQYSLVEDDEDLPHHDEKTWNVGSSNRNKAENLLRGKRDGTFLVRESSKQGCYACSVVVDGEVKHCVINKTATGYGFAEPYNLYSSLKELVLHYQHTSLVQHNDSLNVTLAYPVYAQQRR
T2 sequence (P42336 whole entry): as the sequence (P42336 whole entry) above
T2 sequence (P27986 whole entry partner): as the sequence (P27986 whole entry partner) above

In the case of `Cc1ccccc1-c1cc(OC2CC2)ccc1S(=O)(=O)N1CCC(F)(C(=O)N[C@H](C)/C=C\S(C)(=O)=O)CC1` [Compound 106, (R,Z)-1-((5-cyclopropoxy-2′-methyl-[1,1′-biphenyl]-2-yl)sulfonyl)-4-fluoro-N-(4-(methylsulfonyl)but-3-en-2-yl)piperidine-4-carboxamide], the pIC50 is 6.09 at PIK3CA and 6.51 against PIK3CA_C242. Taken in the same sequence, the figures for `Cc1ccccc1-c1cc(N2CCC2)ccc1S(=O)(=O)N1CCC(F)(C(=O)N[C@H](C)/C=C\S(C)(=O)=O)CC1` [Compound 116, (R,Z)-1-((5-(azetidin-1-yl)-2′-methyl-[1,1′-biphenyl]-2-yl)sulfonyl)-4-fluoro-N-(4-(methylsulfonyl)but-3-en-2-yl)piperidine-4-carboxamide] were 6.47 and 6.58.

Consider `C[C@@H](/C=C\S(C)(=O)=O)NC(=O)C1(F)CCN(S(=O)(=O)c2ccc(Cl)cc2-c2cccc(C#N)c2)CC1` [Compound 8, (S,Z)-1-((5-chloro-3′-cyano-[1,1′-biphenyl]-2-yl)sulfonyl)-4-fluoro-N-(4-(methylsulfonyl)but-3-en-2-yl)piperidine-4-carboxamide], for which the pIC50 at PIK3CA is 6.16; on PIK3CA_C242, 5.87.

Turning to `CO/N=C/c1cccc(-c2cc(Cl)ccc2S(=O)(=O)N2CCC(F)(C(=O)N[C@@H](C)/C=C\S(C)(=O)=O)CC2)c1` [Compound 127, 1-((5-chloro-3′-((E)-(methoxyimino)methyl)-[1,1′-biphenyl]-2-yl)sulfonyl)-4-fluoro-N-((S,Z)-4-(methylsulfonyl)but-3-en-2-yl) piperidine-4-carboxamide], the values for the pIC50 on PIK3CA and against PIK3CA_C242 were 5.96 and 6.02, respectively. Taken in the same sequence, the figures for `COc1cccc(-c2cc(OC)ccc2S(=O)(=O)N2CCC(F)(C(=O)N[C@@H](C)/C=C\S(C)(=O)=O)CC2)c1` [Compound 5, (S,Z)-1-((3′,5-dimethoxy-[1,1′-biphenyl]-2-yl)sulfonyl)-4-fluoro-N-(4-(methylsulfonyl)but-3-en-2-yl)piperidine-4-carboxamide] were 6.70 and 6.73.

Turning to `C[C@@H](/C=C\S(C)(=O)=O)NC(=O)C1(F)CCN(S(=O)(=O)c2ccc(Cl)cc2-c2cccc(OCc3ccccc3Cl)c2)CC1` [Compound 265, (S,Z)-1-((5-chloro-3′-((2-chlorobenzyl)oxy)-[1,1′-biphenyl]-2-yl)sulfonyl)-4-fluoro-N-(4-(methylsulfonyl)but-3-en-2-yl)piperidine-4-carboxamide], the pIC50 at PIK3CA is 6.48; against PIK3CA_C242, 6.41. Taken in the same sequence, the figures for `C[C@@H](/C=C\S(C)(=O)=O)NC(=O)C1(F)CCN(S(=O)(=O)c2ccc(Cl)cc2-c2cccc(OCc3ccccn3)c2)CC1` [Compound 269, (S,Z)-1-((5-chloro-3′-(pyridin-2-ylmethoxy)-[1,1′-biphenyl]-2-yl)sulfonyl)-4-fluoro-N-(4-(methylsulfonyl)but-3-en-2-yl)piperidine-4-carboxamide] were 7.05 and 7.20. For the compound `C[C@H](/C=C\S(C)(=O)=O)NC(=O)C1(F)CCN(S(=O)(=O)c2cnc(Cl)cc2-c2ccccc2Cl)CC1` [Compound 231, (R,Z)-1-((6-chloro-4-(2-chlorophenyl)pyridin-3-yl)sulfonyl)-4-fluoro-N-(4-(methylsulfonyl)but-3-en-2-yl)piperidine-4-carboxamide], the pIC50 at PIK3CA was 6.89; on PIK3CA_C242, 6.94. Taken in the same sequence, the figures for `C[C@H](/C=C\S(C)(=O)=O)NC(=O)C1(F)CCN(S(=O)(=O)c2ccc(N(C)C)cc2-c2ccccc2)CC1` [Compound 91, (R,Z)-1-((5-(dimethylamino)-[1,1′-biphenyl]-2-yl)sulfonyl)-4-fluoro-N-(4-(methylsulfonyl)but-3-en-2-yl)piperidine-4-carboxamide] were 6.55 and 6.37.

As for `COc1ccc(S(=O)(=O)N2CCC(F)(C(=O)N[C@H](C)/C=C\S(C)(=O)=O)CC2)c(-c2ccccc2Cl)c1Cl` [Compound 32, 1-((2′,6-dichloro-5-methoxy-[1,1′-biphenyl]-2-yl)sulfonyl)-4-fluoro-N-((R,Z)-4-(methylsulfonyl)but-3-en-2-yl)piperidine-4-carboxamide], the pIC50 was 6.03 at PIK3CA and 6.09 on PIK3CA_C242. Taken in the same sequence, the figures for `CCCOc1cccc(-c2cc(Cl)ccc2S(=O)(=O)N2CCC(F)(C(=O)N[C@@H](C)/C=C\S(C)(=O)=O)CC2)c1` [Compound 14, (S,Z)-1-((5-chloro-3′-propoxy-[1,1′-biphenyl]-2-yl)sulfonyl)-4-fluoro-N-(4-(methylsulfonyl)but-3-en-2-yl)piperidine-4-carboxamide] were 6.33 and 6.48.

With `Cc1ccccc1-c1cc(N2CCOCC2)ccc1S(=O)(=O)N1CCC(F)(C(=O)N[C@H](C)/C=C\S(C)(=O)=O)CC1` [Compound 122, (R,Z)-4-fluoro-1-((2′-methyl-5-morpholino-[1,1′-biphenyl]-2-yl)sulfonyl)-N-(4-(methylsulfonyl)but-3-en-2-yl)piperidine-4-carboxamide], the figures for the pIC50 at PIK3CA and at PIK3CA_C242 were 6.21 and 6.31, respectively. Taken in the same sequence, the figures for `COc1ccc(S(=O)(=O)N2CCC(F)(C(=O)N[C@H](C)/C=C\S(C)(=O)=O)CC2)c(-c2ccccc2)c1` [Compound 21, (R,Z)-4-fluoro-1-((5-methoxy-[1,1′-biphenyl]-2-yl)sulfonyl)-N-(4-(methylsulfonyl)but-3-en-2-yl)piperidine-4-carboxamide] were 6.00 and 5.91. Taken in the same sequence, the figures for `C[C@H](/C=C\S(C)(=O)=O)NC(=O)C1(F)CCN(S(=O)(=O)c2ccc(N3CCC3)cc2-c2ccccc2Cl)CC1` [Compound 124, (R,Z)-1-((5-(azetidin-1-yl)-2′-chloro-[1,1′-biphenyl]-2-yl)sulfonyl)-4-fluoro-N-(4-(methylsulfonyl)but-3-en-2-yl)piperidine-4-carboxamide] were 6.49 and 6.82. Taken in the same sequence, the figures for `N#C/C=C\CNC(=O)C1(F)CCN(S(=O)(=O)c2ccc(Br)cc2-c2ccccc2Cl)CC1` [Compound 70, (Z)-1-((5-bromo-2′-chloro-[1,1′-biphenyl]-2-yl)sulfonyl)-N-(3-cyanoallyl)-4-fluoropiperidine-4-carboxamide] were 7.02 and 7.15. Compound `C[C@H](/C=C\S(C)(=O)=O)NC(=O)C1(F)CCN(S(=O)(=O)c2cnc(O)cc2-c2ccccc2Cl)CC1` [Compound 276, (R,Z)-1-((4-(2-chlorophenyl)-6-hydroxypyridin-3-yl)sulfonyl)-4-fluoro-N-(4-(methylsulfonyl)but-3-en-2-yl)piperidine-4-carboxamide] had a pIC50 against PIK3CA_C242 of 6.24. On the same count and under the same terms, the value for `CC#Cc1cccc(-c2cc(Cl)ccc2S(=O)(=O)N2CCC(F)(C(=O)NC/C=C/S(C)(=O)=O)CC2)c1` [Compound 46, (E)-1-((5-chloro-3′-(prop-1-yn-1-yl)-[1,1′-biphenyl]-2-yl)sulfonyl)-4-fluoro-N-(3-(methylsulfonyl)allyl)piperidine-4-carboxamide] was 6.34; that for `C[C@@H](/C=C\S(C)(=O)=O)NC(=O)C1(F)CCN(S(=O)(=O)c2ccc(N(C)C)cc2-c2ccccc2Cl)CC1` [Compound 89, (S,Z)-1-((2′-chloro-5-(dimethylamino)-[1,1′-biphenyl]-2-yl)sulfonyl)-4-fluoro-N-(4-(methylsulfonyl)but-3-en-2-yl)piperidine-4-carboxamide] was 7.33.
